Experimental data published in patent publication US8232307B2, “Indane-amine derivatives, their preparation and use as medicaments” (Laboratorios del Dr. Esteve, S.A., priority 2007, dated 2012).
Where a name gives a salt, the structure may show the parent alone.

Molecular target: T1, Cloned Human Serotonin Receptor, Subtype 7 (h5HT7) (Homo sapiens, UniProt P34969)
T1 construct: purchased PerkinElmer 6120512; host or cells: CHO cells (membranes coated on Basic FlashPlate SMP200)
Test: Radioligand binding assay, [125I]LSD, h5HT7 expressed in CHO cells
Settings: radioligand [125I]LSD 0.82 nM, read-out: 5-HT7 IC50
Method: Radioligand binding assays were performed using the Cloned Human Serotonin Receptor, Subtype 7 (h5HT7), expressed in CHO cells, coated on Flashplate (Basic FlashPlate Cat.: SMP200) from PerkinElmer (Cat.: 6120512). The protocol assay was essentially the recommended protocol in the Technical Data Sheet by PerkinEmer Life and Analytical Sciences. The Mass membrane protein/well was typically 12 μg and the Receptor/well was about 9-10 fmoles. The Flashplate were let equilibrate at room temperature for one hour before the addition of the components of the assay mixture. The binding buffer was: 50 mM Tris-HCl, pH 7.4, containing 10 mM MgCl2, 0.5 mM EDTA and 0.5% BSA. The radioligand was [^125I]LSD at a final concentration of 0.82 nM. Nonspecific binding was determined with 50 μM of Clozapine. The assay volume was 25 μl. TopSeal-A were applied onto Flashplate microplates and they were incubated at room temperature for 240 minutes in darkness. The radioactivity were quantified by liquid scintillation spectrophotometry (Wallac 1450 Microbeta Trilux) with a count delay of 4 minutes prior to counting and a counting time of 30 seconds per well. Competition binding data were analyzed by using the LIGAND program (Munson and Rodbard, LIGAND: A versatile, computerized approach for characterization of ligand-binding systems. Anal. Biochem. 107: 220-239, 1980) and assays were performed in triplicate determinations for each point.

T1 sequence (P34969 whole entry): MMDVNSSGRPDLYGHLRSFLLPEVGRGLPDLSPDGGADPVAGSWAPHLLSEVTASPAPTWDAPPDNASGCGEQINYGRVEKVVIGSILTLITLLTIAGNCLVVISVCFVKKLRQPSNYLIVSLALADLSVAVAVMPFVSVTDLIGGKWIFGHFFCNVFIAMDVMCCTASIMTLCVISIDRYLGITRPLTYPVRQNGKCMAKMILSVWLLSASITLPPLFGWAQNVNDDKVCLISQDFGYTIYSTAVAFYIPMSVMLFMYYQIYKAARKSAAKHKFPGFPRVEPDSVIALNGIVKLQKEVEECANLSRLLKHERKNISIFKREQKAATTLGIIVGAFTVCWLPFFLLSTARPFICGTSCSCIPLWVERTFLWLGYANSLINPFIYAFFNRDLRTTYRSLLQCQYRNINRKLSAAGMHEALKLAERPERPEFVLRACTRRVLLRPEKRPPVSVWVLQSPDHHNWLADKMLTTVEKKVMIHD

| SMILES | IC50 |
| --- | --- |
| COc1ccccc1-c1ccc2c(c1)C(N(C)C)CC2 (stereo not drawn) [Example 12, [6-(2-Methoxy-phenyl)-indan-1-yl]-dimethyl-amine] | 68.4 ± 1.1 nM |
| Cc1nn(C)c(C)c1-c1ccc2c(c1)[C@H](N(C)C)CC2 [Example 2, (R)-Dimethyl-[6-(1,3,5-trimethyl-1H-pyrazol-4-yl)-indan-1-yl]-amine] | 5.5 ± 2.7 nM |
| Cc1nn(C)c(C)c1-c1ccc2c(c1)[C@@H](N(C)C)CC2 [Example 3, (S) Dimethyl-[6-(1,3,5-trimethyl-1H-pyrazol-4-yl)-indan-1-yl]-amine] | 307 ± 181 nM |
| COc1cccc(OC)c1-c1ccc2c(c1)C(N(C)C)CC2 (stereo not drawn) [Example 10, [6-(2,6-Dimethoxy-phenyl)-indan-1-yl]-dimethyl-amine] | 53.5 ± 10.1 nM |
| Cc1nn(C)c(C)c1-c1ccc2c(c1)C(N(C)C)CC2 (stereo not drawn) [Example 1, Dimethyl-[6-(1,3,5-trimethyl-1H-pyrazol-4-yl)-indan-1-yl]-amine dihydrochloride] | 15.5 ± 2.9 nM |

Results, then the compound that gave them:

| IC50 | SMILES |
| --- | --- |
| 18.7 nM | CNC1CCc2ccc(-c3c(C)nn(C)c3C)cc21 (stereo not drawn) [Example 4, Methyl-[6-(1,3,5-trimethyl-1H-pyrazol-4-yl)-indan-1-yl]-amine] |
| 77.7 ± 40.9 nM | CNC1CCc2ccc(-c3ccccc3OC)cc21 (stereo not drawn) [Example 13, [6-(2-Methoxy-phenyl)-indan-1-yl]-methyl-amine] |
| 195 ± 86 nM | CNC1CCc2ccc(-c3c(OC)cccc3OC)cc21 (stereo not drawn) [Example 11, [6-(2,6-Dimethoxy-phenyl)-indan-1-yl]-methyl-amine] |

Same assay, conditions: radioligand [125I]LSD 0.82 nM, read-out: 5-HT7 Ki

| SMILES | Ki |
| --- | --- |
| Cc1nn(C)c(C)c1-c1ccc2c(c1)C([N+](C)(C)C)CC2 (stereo not drawn) [Example 36, Trimethyl-[6-(1,3,5-trimethyl-1H-pyrazol-4-yl)-indan-1-yl]-ammonium iodide] | 153 ± 32.4 nM |
| Cc1cccc(C)c1-c1ccc2c(c1)C(N(C)C)CC2 (stereo not drawn) [Example 14, [6-(2,6-Dimethyl-phenyl)-indan-1-yl]-dimethyl-amine] | 198 ± 31.9 nM |
| COc1cccc(Cl)c1-c1ccc2c(c1)C(N(C)C)CC2 (stereo not drawn) [Example 20, [6-(2-Chloro-6-methoxy-phenyl)-indan-1-yl]-dimethyl-amine] | 25.8 ± 2.7 nM |

Second part, the compound after the results:

| Ki | SMILES |
| --- | --- |
| 47.6 ± 1.2 nM | CNC1CCc2ccc(-c3c(F)cccc3F)cc21 (stereo not drawn) [Example 19, [6-(2,6-Difluoro-phenyl)-indan-1-yl]-methyl-amine] |
| 73.3 ± 9.3 nM | CN[C@@H]1CCc2ccc(-c3c(C)nn(C)c3C)cc21 [Example 38, (R) Methyl-[6-(1,3,5-trimethyl-1H-pyrazol-4-yl)-indan-1-yl]-amine] |
| 75.2 ± 2 nM | CNC1CCc2ccc(-c3c(C)cccc3C)cc21 (stereo not drawn) [Example 15, [6-(2,6-Dimethyl-phenyl)-indan-1-yl]-methyl-amine] |
| 55.7 ± 1.2 nM | CNC1CCc2ccc(-c3c(Cl)cccc3OC)cc21 (stereo not drawn) [Example 21, [6-(2-Chloro-6-methoxy-phenyl)-indan-1-yl]-methyl-amine] |
